According to US20150164916A1, “ROFLUMILAST COMPOSITIONS FOR THE TREATMENT OF COPD” (Forest Laboratories Holdings Ltd., priority 2012, published 2015):

Key:
Assay type in all cases: cell-based, human
PI3Kδ = assay: Real time RT-PCR of PI3Kδ expression in CSE-stimulated neutrophils from COPD patients; conditions: RNO 1 nM and 1 μM, DEX 1 μM, RNO 1 nM plus DEX 1 μM, NAC 1 mM, CSE 5%
Method: (§1) Neutrophils and monocytes were isolated from peripheral venous blood by standard laboratory procedures. In brief, peripheral venous blood was mixed with dextran 500 at 3% (in 0.9% saline) in a proportion of 2:1. This mixture was incubated at room temperature for 30 min until erythrocytes were sedimented. The upper phase was carefully collected and added on Ficoll-Paque Histopaque 1077 (Amershan Pharmacia Biotech, Barcelona, Spain) density gradient in a proportion of 3:1. The two phases generated were centrifuged at 150 g, 4° C. for 30 min. […]
(§2) CSE was prepared as previously outlined (Milara et al.; Ortiz et al.). […] The quality of the prepared CSE solution was assessed based on the absorbance at 320 nm, which is the specific absorption wavelength of peroxynitrite. Stock solutions with an absorbance value of 3.0±0.1 were used. […]
(§3) Total RNA was obtained from isolated neutrophils under basal conditions or after different drug and stimulation periods defined above by using TriPure® Isolation Reagent (Roche, Indianapolis, USA). […] Relative quantification of these transcripts was determined with the 2^−ΔΔCt method using glyceraldehyde phosphate dehydrogenase (GAPDH) as endogenous control (Applied Biosystems; 4352339E) and normalized to control group as previously described (Milara et al., 2009).
(§4) Then, mRNA was isolated and quantified for different genes.

GCβ = assay: Real time RT-PCR of GCβ mRNA in CSE-stimulated neutrophils from COPD patients; conditions: RNO 1 nM and 1 μM, DEX 1 μM, RNO 1 nM plus DEX 1 μM, NAC 1 mM, CSE 5%
Method: as §1, §2, §3, §4

MIF = assay: Real time RT-PCR of MIF mRNA in CSE-stimulated neutrophils from COPD patients; conditions: RNO 1 nM and 1 μM, DEX 1 μM, RNO 1 nM plus DEX 1 μM, NAC 1 mM for 1 h, then CSE 5% 6 h
Method: as §1, §2, §3, §4

IL-8 release = assay: LPS- or CSE-induced IL-8 release in isolated peripheral blood neutrophils (ELISA); conditions: 6 h
Method: (§5) Neutrophils and monocytes were isolated from peripheral venous blood by standard laboratory procedures. In brief, peripheral venous blood was mixed with dextran 500 at 3% (in 0.9% saline) in a proportion of 2:1. This mixture was incubated at room temperature for 30 min until erythrocytes were sedimented. The upper phase was carefully collected and added on Ficoll-Paque Histopaque 1077 (Amershan Pharmacia Biotech, Barcelona, Spain) density gradient in a proportion of 3:1. The two phases generated were centrifuged at 150 g, 4° C. for 30 min. Thus, the interface was collected to isolate monocytes, and the pellet obtained (which is consisted a mixture of neutrophils and low proportion of residual erythrocytes and traces of eosinophils and basophils) was resuspended in an erythrocyte lysis buffer (Biolegend, UK) for 5 min in ice. Cell suspension was washed two times with phosphate buffer (PBS).
CSE was prepared as previously outlined (Milara et al.; Ortiz et al.). Briefly, the smoke of a research cigarette (2R4F; Tobacco Health Research, University of Kentucky, KY, USA) was generated by a respiratory pump (Apparatus Rodent Respirator 680; Harvard, Germany) through a puffing mechanism related to the human smoking pattern (3 puff/min; 1 puff 35 ml; each puff of 2 s duration with 0.5 cm above the filter) and was bubbled into a flask containing 25 ml of pre-warmed (37° C.) RPMI 1640 culture medium supplemented as describe above. The CSE solution was sterilized by filtration through a 0.22-μm cellulose acetate sterilizing system (Corning, N.Y.). The resultant CSE solution was considered to be 100% CSE and was used for experiments within 30 min of preparation. CSE 10% corresponds approximately to the exposure associated with smoking two packs per day (Su et al., 1998). The quality of the prepared CSE solution was assessed based on the absorbance at 320 nm, which is the specific absorption wavelength of peroxynitrite. Stock solutions with an absorbance value of 3.0±0.1 were used. To test for cytotoxicity from CSE, isolated neutrophils and monocytes were treated with CSE concentrations of up to 5% for 24.
(§6) Peripheral neutrophil cell suspension was adjusted to 500×10^3 cells per well in 24-well plates and incubated in RPMI culture medium for 1 h into the incubator at 37° C., 5% CO2. […] Both the stimulus and drug were remained together for 6 h. Supernatants were collected and centrifuged at 120 g for 5 min, and the free-cell supernatant was used to measure IL-8, MMP-9, IL-1β, GM-CSF and CCL-5.
(§7) IL-8 was determined by using commercially available enzyme-linked immunosorbent assay kit for IL-8 (R&D Systems, UK) according to the manufacturer's protocol. MMP-9, IL-1β, GM-CSF and CCL-5 were measured by LUMINEX technology according to the manufacturer's protocol.
(§8) Data were presented as mean±SEM. IC50 values were calculated for each drug and their combinations. Statistical analysis of results was carried out by analysis of variance (ANOVA) followed by Bonferroni test, by Student's t test, or by non-parametric tests as appropriate (GraphPad Software Inc, San Diego, Calif., USA). Significance was accepted when P<0.05. For clinical correlations of lung function and gene expression from neutrophils the non-parametric Spearman correlation analysis was carried out.

CCL-5 release = assay: LPS-induced CCL-5 release in isolated peripheral blood neutrophils (LUMINEX); conditions: LPS (1 μg/ml), 6 h
Method: as §5, §6, §7, §8

[1] = CSE 5%, neutrophils from COPD patients
[2] = CSE 5%, neutrophils from HEALTHY
[3] = LPS (1 μg/ml), neutrophils from COPD patients
[4] = LPS (1 μg/ml), neutrophils from HEALTHY

O=C(Nc1c(Cl)c[n+]([O-])cc1Cl)c1ccc(OC(F)F)c(OCC2CC2)c1 [RNO, roflumilast N-oxide]
effect on CSE-induced PI3Kδ upregulation (PI3Kδ): inhibited
effect on CSE-induced GCβ upregulation (GCβ): inhibited
effect on CSE-induced increase of MIF mRNA expression (MIF): reversed the effect of CSE
-log IC50, inhibition of IL-8 release (IL-8 release; [1]): 7.92 ± 0.1
Maximal % Inhibition of IL-8 release (IL-8 release; [1]): 88.9 ± 5.62%
-log IC50, inhibition of IL-8 release (IL-8 release; [2]): 7.95 ± 0.12
Maximal % Inhibition of IL-8 release (IL-8 release; [2]): 90.4 ± 5.4%
-log IC50, inhibition of IL-8 release (IL-8 release; [3]): 7.44 ± 0.24
Maximal % Inhibition of IL-8 release (IL-8 release; [3]): 48.70 ± 5.18%
-log IC50, inhibition of IL-8 release (IL-8 release; [4]): 7.46 ± 0.26
Maximal % Inhibition of IL-8 release (IL-8 release; [4]): 40.50 ± 4.55%
-log IC50, inhibition of CCL-5 release (CCL-5 release; neutrophils from COPD patients): 8.77 ± 0.35
Maximal % Inhibition of CCL-5 release (CCL-5 release; neutrophils from COPD patients): 83.01 ± 6.74%
-log IC50, inhibition of CCL-5 release (CCL-5 release; neutrophils from HEALTHY): 8.62 ± 0.14
Maximal % Inhibition of CCL-5 release (CCL-5 release; neutrophils from HEALTHY): 79.34 ± 3.63%
